Data reported in ChEMBL document CHEMBL1201862, “PubChem BioAssay data set” (2004).
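Following 48 hours of exposure in 96-well plates, responses at five concentrations were used to interpolate endpoints linearly. The concentration for 50% growth inhibition is given as GI50.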 The source made the active and inactive calls. Cut-off read from the data, not from the text of the source: active = GI50 up to about 1.1 µM and inactive = higher.

Legend:
Test in all cases: NCI tumour cell line growth inhibition, 48 h
DLD-1 = test system: DLD-1
DMS-273 = test system: DMS-273
HOP-18 = test system: HOP-18
KM-20L2 = test system: KM-20L2
M19-MEL = test system: M19-MEL
RXF 631 = test system: RXF 631
SNB-78 = test system: SNB-78
DMS-114 = test system: DMS-114
XF498 = test system: XF498

| SMILES | GI50 (DLD-1) | GI50 (DMS-273) | GI50 (HOP-18) | GI50 (KM-20L2) | GI50 (M19-MEL) | GI50 (RXF 631) | GI50 (SNB-78) | GI50 (DMS-114) | GI50 (XF498) |
| --- | --- | --- | --- | --- | --- | --- | --- | --- | --- |
| O=C(CC(=O)N1N=C(n2ccc3ccccc32)CC1c1ccccc1)Nc1cccc(Cl)c1 (stereo unspecified) | > 100 µM (inactive) | > 100 µM (inactive) | > 100 µM (inactive) | > 100 µM (inactive) | > 100 µM (inactive) | > 100 µM (inactive) | > 100 µM (inactive) | – | – |
| Cc1c(N)nc(C(CC(N)=O)NCC(N)C(N)=O)nc1C(=O)NC(C(=O)NC(C)C(O)C(C)C(=O)NC(C(=O)NCCc1nc(-c2nc(C(=O)NCCCNC(C)c3ccccc3)cs2)cs1)C(C)O)C(OC1OC(CO)C(O)C(O)C1OC1OC(CO)C(O)C(OC(N)=O)C1O)c1c[nH]cn1 (stereo unspecified) | 32.8 µM (inactive) | 0.0752 µM (active) | 21.3 µM (inactive) | 40.4 µM (inactive) | 15 µM (inactive) | – | > 50 µM (inactive) | 0.59 µM (active) | 0.973 µM (active) |
| CCSc1nc2n(c(=S)n1)CCN2C | – | 18.1 µM (inactive) | – | 20 µM (inactive) | 13.5 µM (inactive) | – | – | 18.7 µM (inactive) | – |
| CCCCCCCCCCCCCS(=O)(=O)NCC(N)=O | > 100 µM (inactive) | – | > 100 µM (inactive) | > 100 µM (inactive) | > 100 µM (inactive) | – | > 100 µM (inactive) | > 100 µM (inactive) | 69.8 µM (inactive) |
| O=C1C=CC(=O)c2c(O)ccc(O)c21 [NAPHTHAZALIN] | 0.326 µM (active) | 3.17 µM (inactive) | 1.16 µM (inactive) | 1.84 µM (inactive) | 0.491 µM (active) | – | 2.25 µM (inactive) | 1.8 µM (inactive) | 1.58 µM (inactive) |
| Cc1cccc(N2C(=O)C(Cl)=C(Cl)C2=O)c1 | > 43 µM (inactive) | > 100 µM (inactive) | > 73.6 µM (inactive) | > 100 µM (inactive) | > 91.2 µM (inactive) | – | > 100 µM (inactive) | > 67.5 µM (inactive) | 0.661 µM (active) |
| Oc1cc(O)c(Oc2cccc(O)c2O)c(O)c1 | – | > 100 µM (inactive) | > 100 µM (inactive) | – | 21.1 µM (inactive) | > 100 µM (inactive) | > 100 µM (inactive) | 57.7 µM (inactive) | 29.5 µM (inactive) |
| O=c1[nH]cc(COCCO)c(=O)[nH]1 | > 100 µM (inactive) | > 100 µM (inactive) | > 100 µM (inactive) | > 100 µM (inactive) | > 100 µM (inactive) | > 100 µM (inactive) | > 100 µM (inactive) | > 100 µM (inactive) | > 100 µM (inactive) |
| O=C1NC(=O)/C(=N\c2cccc3c(=O)[nH][nH]c(=O)c23)C(c2nc3ccccc3s2)C1=O (stereo unspecified) | > 100 µM (inactive) | > 100 µM (inactive) | > 100 µM (inactive) | > 100 µM (inactive) | > 100 µM (inactive) | > 100 µM (inactive) | > 100 µM (inactive) | > 100 µM (inactive) | 32.1 µM (inactive) |
| O=C(NN1C(=O)C(Cl)C1c1cccc(Cl)c1)c1ccccc1O (stereo unspecified) | – | > 100 µM (inactive) | 0.167 µM (active) | – | > 100 µM (inactive) | – | > 100 µM (inactive) | – | 15.3 µM (inactive) |
| CCN(CC)CCC1(C2CCCCC2)CCC(=O)NC1=O (stereo unspecified) | > 100 µM (inactive) | > 100 µM (inactive) | – | > 100 µM (inactive) | > 100 µM (inactive) | > 100 µM (inactive) | > 100 µM (inactive) | > 100 µM (inactive) | > 100 µM (inactive) |
| CCCC(C(=O)OC)C1N/C(=N/C#N)N(Cc2ccccc2)C1=O (stereo unspecified) | > 100 µM (inactive) | > 100 µM (inactive) | – | > 100 µM (inactive) | > 100 µM (inactive) | – | – | > 100 µM (inactive) | > 100 µM (inactive) |
| CC1=C(C(=O)CC(=O)C(=O)Nc2cccc(C)c2C)Sc2ccccc2N1 | > 100 µM (inactive) | – | > 100 µM (inactive) | – | > 100 µM (inactive) | – | > 100 µM (inactive) | > 100 µM (inactive) | – |
| COc1ccc(OC)c(NC(=O)C2=C(C)NC(C)=C(C(=O)Nc3cc(OC)ccc3OC)C2c2ccccc2)c1 | 21.7 µM (inactive) | > 100 µM (inactive) | 1.04 µM (active) | 86.5 µM (inactive) | > 100 µM (inactive) | – | > 100 µM (inactive) | 96.2 µM (inactive) | – |
| CC1=C(C(=O)Nc2ccccc2C)C(c2ccc(Cl)cc2)C(C(=O)Nc2ccccc2C)=C(C)N1 | > 100 µM (inactive) | – | > 100 µM (inactive) | – | > 100 µM (inactive) | > 100 µM (inactive) | > 100 µM (inactive) | > 100 µM (inactive) | 81.3 µM (inactive) |
| BrC(Br)([P+](c1ccccc1)(c1ccccc1)c1ccccc1)[P+](c1ccccc1)(c1ccccc1)c1ccccc1 | 15.9 µM (inactive) | 14.6 µM (inactive) | > 100 µM (inactive) | 24.9 µM (inactive) | 13.3 µM (inactive) | – | 19.7 µM (inactive) | 13.4 µM (inactive) | – |
| Cc1c(N)nc([C@H](CC(N)=O)NC[C@H](N)C(N)=O)nc1C(=O)N[C@H](C(=O)N[C@H](C)[C@@H](O)[C@H](C)C(=O)N[C@H](C(=O)NCCc1nc(-c2nc(C(=O)NCCC[S+](C)C)cs2)cs1)[C@@H](C)O)C(OC1OC(CO)C(O)C(O)C1OC1OC(CO)C(O)C(OC(N)=O)C1O)c1c[nH]cn1 (stereo partly specified) | 14.1 µM (inactive) | 0.12 µM (active) | 4.27 µM (inactive) | 19.9 µM (inactive) | 8.28 µM (inactive) | 0.608 µM (active) | 20.8 µM (inactive) | 0.438 µM (active) | 0.776 µM (active) |
| O=C(c1ccccc1)c1c(C(=O)c2ccccc2)c(-c2ccccc2)c2c(-c3ccccc3)sc(-c3ccccc3)c2c1-c1ccccc1 | > 100 µM (inactive) | > 100 µM (inactive) | – | > 100 µM (inactive) | > 100 µM (inactive) | > 100 µM (inactive) | > 100 µM (inactive) | > 100 µM (inactive) | > 100 µM (inactive) |
| N#CCCN(c1ccc(/C=N/c2nc(-c3ccccc3)cs2)cc1)S(=O)(=O)c1ccccc1 | 96.8 µM (inactive) | > 100 µM (inactive) | – | > 100 µM (inactive) | > 100 µM (inactive) | – | > 100 µM (inactive) | 39.4 µM (inactive) | > 100 µM (inactive) |
| N=C(N)NS(=O)(=O)c1ccc(NC(=O)c2cccc3c(N)c4ccccc4nc23)cc1 | > 100 µM (inactive) | > 100 µM (inactive) | – | 68.2 µM (inactive) | > 100 µM (inactive) | > 100 µM (inactive) | > 100 µM (inactive) | 61.2 µM (inactive) | > 100 µM (inactive) |
| CC(=O)/C(=C\c1ccccc1)C(=O)Nc1ccccc1 | > 100 µM (inactive) | – | > 100 µM (inactive) | – | > 100 µM (inactive) | > 100 µM (inactive) | > 100 µM (inactive) | > 100 µM (inactive) | > 100 µM (inactive) |
| O=C1CC(C2(O)C(=O)Nc3ccc([N+](=O)[O-])cc32)c2ccccc21 (stereo unspecified) | 40 µM (inactive) | 20.9 µM (inactive) | 28.1 µM (inactive) | – | 29.2 µM (inactive) | 16.4 µM (inactive) | 31.6 µM (inactive) | 9.48 µM (inactive) | – |
| CC[P+]1(c2ccccc2)CCCCC1 | > 100 µM (inactive) | > 100 µM (inactive) | > 100 µM (inactive) | > 100 µM (inactive) | > 100 µM (inactive) | > 100 µM (inactive) | > 100 µM (inactive) | > 100 µM (inactive) | – |
| COc1cc2cnc3c4cc(O)ccc4ccc3c2cc1OC | > 100 µM (inactive) | – | 34.8 µM (inactive) | > 100 µM (inactive) | 24.7 µM (inactive) | – | – | 6.3 µM (inactive) | – |
